In patent US12668600B2 (Kumquat Biosciences Inc., priority 2023, dated 2026):

Target: T1, KRAS G12D (Homo sapiens, UniProt P01116, G12D)
T1 construct: made in house; host or cells: E. coli, e.g. BL21 (DE3)
Assay: HTRF KRAS-SOS1 interaction assay, KRAS G12D
Type: biochemical
Details: binned ≤2 μM / >2 μM, read-out: Inhibition of KRAS G12D (IC50)
Source text: This assay can be also used to assess a selective inhibition or reduction of signaling output of a mutant Ras protein relative to a wildtype, or relative to a different mutant Ras protein. For example, the equilibrium interaction of wildtype KRAS or K-Ras mutant (e.g., wildtype or a mutant thereof) with SOS1 (e.g., hSOS1) can be assessed as a proxy or an indication for the ability of a subject compound to bind and inhibit Ras protein. The HTRF assay detects from (i) a fluorescence resonance energy transfer (FRET) donor (e.g., antiGST-Europium) that is bound to GST-tagged K-Ras mutant to (ii) a FRET acceptor (e.g., anti-6His-XL665) bound to a His-tagged hSOS1.
The assay buffer can contain ˜5 mM HEPES pH 7.4, ˜150 mM NaCl, ˜1 mM DTT, 0.05% BSA and 0.0025% (v/v) Igepal. A Ras working solution is prepared in an assay buffer containing typically a suitable amount of the protein construct (e.g., GST-tagged K-Ras mutant) and the FRET donor (e.g., antiGST-Eu (K) from Cisbio, France). A SOS1 working solution is prepared in an assay buffer containing suitable amount of the protein construct (e.g., His-hSOS1) and the FRET acceptor (e.g., anti-6His-XL665 from Cisbio, France). A suitable amount of the protein construct will depend on the range of activity or range of IC50 values being detected or under investigation. For detecting an IC50 within a range of 500 nM, the protein constructs of the same range of molarity can be utilized.
A fixed volume of DMSO with or without test compound is transferred into a 384-well plate. Ras working solution is added to all wells of the test plate. SOS1 working solution is added to all wells except for those that are subsequently filled with inhibitor control solution. Upon incubation for about 10 minutes or longer, the fluorescence is measured with a M1000Pro plate reader (Tecan) using HTRF detection (excitation 337 nm, emission 1:620 nm, emission 2:665 nm). Compounds are tested in duplicate at different concentrations (for example, 10 μM, 2.5 μM, 0.63 μM, 0.16 μM, 0.04 μM, 0.01 μM test compound). The ratiometric data (i.e., emission 2 divided by emission 1) is used to calculate IC50 values against Ras using GraphPad Prism (GraphPad software). Signaling output measured in terms of IC50 values can be obtained and a ratio of IC50 against one mutant relative to another mutant can be calculated.

T1 sequence (P01116 1-188 isoform P01116-2 G12D): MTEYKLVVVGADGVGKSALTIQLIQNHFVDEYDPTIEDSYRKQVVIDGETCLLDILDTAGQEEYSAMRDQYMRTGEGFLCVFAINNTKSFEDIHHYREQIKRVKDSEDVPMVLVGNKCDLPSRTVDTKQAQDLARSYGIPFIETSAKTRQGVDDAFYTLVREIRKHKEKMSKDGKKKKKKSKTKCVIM

Compound: N#Cc1c(N)sc2c(F)ccc(-c3c(C(F)(F)F)c4c5c(nc(OC[C@@]67CCCN6C[C@H](F)C7)nc5c3F)N([C@H](CCC3COCCO3)c3cccnc3N)CCO4)c12 (single isomer, unassigned) [Compound 701]
- IC50: ≤ 2000 nM

Compound: N#Cc1c(N)sc2c(F)ccc(-c3c(C(F)(F)F)c4c5c(nc(OC[C@@]67CCCN6C[C@H](F)C7)nc5c3F)N([C@H](CCC3CC(F)(F)C3)c3cccnc3N)CCO4)c12 (single isomer, unassigned) [Compound 724]
- IC50: ≤ 2000 nM

Compound: C[C@H](c1cccnc1N)N1CCOc2c(Cl)c(-c3cccc4sc(N)c(C#N)c34)c(F)c3nc(OC[C@@]45CCCN4C[C@H](F)C5)nc1c23 (single isomer, unassigned) [Compound 823]
- IC50: ≤ 2000 nM

Compound: C[C@@H]1CN(CC2(COc3nc4c5c(c(C(F)(F)F)c(-c6ccc(F)c7sc(N)c(C#N)c67)c(F)c5n3)OCCN4[C@H](C)c3cccnc3N)CC2)C[C@H](C)O1 [Compound 886, 2-amino-4-(4-((R)-1-(2-aminopyridin-3-yl)ethyl)-2-((1-(((2S,6R)-2,6-dimethylmorpholino)methyl)cyclopropyl)methoxy)-10-fluoro-8-(trifluoromethyl)-5,6-dihydro-4H-[1,4]oxazepino[5,6,7-de]quinazolin-9-yl)-7-fluorobenzo[b]thiophene-3-carbonitrile]
- IC50: ≤ 2000 nM

Compound: C=Cc1c(-c2ccc(F)c3sc(N)c(C#N)c23)c(F)c2nc(OC[C@@]34CCCN3C[C@H](F)C4)nc3c2c1OCCN3[C@H](C)c1cccnc1N (single isomer, unassigned) [Compound 787]
- IC50: ≤ 2000 nM

Compound: N#Cc1c(N)sc2c(F)ccc(-c3c(Cl)c4c5c(nc(OC[C@@]67CCCN6C[C@H](F)C7)nc5c3F)N(C(/C=C\C(F)(F)F)c3cccnc3N)CCO4)c12 (single isomer, unassigned) [Compound 872]
- IC50: ≤ 2000 nM

Compound: Cc1cnc(N)c([C@@H](C)N2CCOc3c(C(F)(F)F)c(-c4ccc(F)c5sc(N)c(C#N)c45)c(F)c4nc(OC[C@@]56CCCN5C[C@H](F)C6)nc2c34)n1 (single isomer, unassigned) [Compound 767]
- IC50: ≤ 2000 nM

Compound: C[C@H](c1cccnc1N)N1CCOc2c(C(F)(F)F)c(-c3ccc(F)c4sc(N)c(C#N)c34)c(F)c3nc(OC[C@@]45CCCN4CC(C#N)C5)nc1c23 (single isomer, unassigned) [Compound 754]
- IC50: ≤ 2000 nM

Compound: N#Cc1c(N)sc2c(F)ccc(-c3c(Cl)c4c5c(nc(OC[C@@]67CCCN6C[C@H](F)C7)nc5c3F)N(C(c3cccnc3N)C(F)F)CCO4)c12 (single isomer, unassigned) [Compound 786]
- IC50: ≤ 2000 nM

Compound: C#C[C@H]1COc2c(Cl)c(-c3ccc(F)c4sc(N)c(C#N)c34)c(F)c3nc(OC[C@@]45CCCN4C[C@H](F)C5)nc(c23)N1C(C)c1cccnc1N (single isomer, unassigned) [Compound 729]
- IC50: ≤ 2000 nM

Compound: CN(C)CC[C@H](c1cccnc1N)N1CCOc2c(C(F)(F)F)c(-c3ccc(F)c4sc(N)c(C#N)c34)c(F)c3nc(OC[C@@]45CCCN4C[C@H](F)C5)nc1c23 (single isomer, unassigned) [Compound 758]
- IC50: ≤ 2000 nM

Compound: CO/N=C1\CN2CCC[C@@]2(COc2nc3c4c(c(Cl)c(-c5ccc(F)c6sc(N)c(C#N)c56)c(F)c4n2)OCCN3[C@H](C)c2cccnc2N)C1 (single isomer, unassigned) [Compound 898]
- IC50: ≤ 2000 nM

Compound: N#Cc1c(N)sc2c(F)ccc(-c3c(C(F)(F)F)c4c5c(nc(OC[C@@]67CCCN6C[C@H](F)C7)nc5c3F)N([C@@H](c3cccnc3N)C(F)F)CCO4)c12 (single isomer, unassigned) [Compound 804]
- IC50: ≤ 2000 nM

Compound: CC(c1cccnc1N)N1CCOc2c(Cl)c(-c3ccc(F)c4sc(N)c(C#N)c34)c(F)c3nc(OC[C@@]45CCCN4C[C@H](F)C5)nc1c23 (single isomer, unassigned) [Compound 820]
- IC50: ≤ 2000 nM

Compound: CC(c1cccnc1N)N1c2nc(OC[C@@]34CCCN3C[C@H](F)C4)nc3c(F)c(-c4ccc(F)c5sc(N)c(C#N)c45)c(Cl)c(c23)OC[C@@H]1CC#N (mixture of isomers) [Compound 716, 2-amino-4-((5S)-4-(1-(2-aminopyridin-3-yl)ethyl)-8-chloro-5-(cyanomethyl)-10-fluoro-2-(((2R,7aS)-2-fluorotetrahydro-1H-pyrrolizin-7a(5H)-yl)methoxy)-5,6-dihydro-4H-[1,4]oxazepino[5,6,7-de]quinazolin-9-yl)-7-fluorobenzo[b]thiophene-3-carbonitrile]
- IC50: ≤ 2000 nM

Compound: C[C@H]1CN([C@@H](c2cccnc2N)C(F)F)c2nc(OC[C@@]34CCCN3C[C@H](F)C4)nc3c(F)c(-c4ccc(F)c5sc(N)c(C#N)c45)c(C(F)(F)F)c(c23)O1 (single isomer, unassigned) [Compound 889]
- IC50: ≤ 2000 nM

Compound: N#Cc1c(N)sc2c(F)ccc(-c3c(Cl)c4c5c(nc(OC[C@@]67CCCN6C[C@H](F)C7)nc5c3F)N(C(C=C(F)F)c3cccnc3N)CCO4)c12 (single isomer, unassigned) [Compound 712]
- IC50: ≤ 2000 nM

Compound: C[C@H](c1ccc(F)nc1N)N1CCOc2c(C(F)(F)F)c(-c3ccc(F)c4sc(N)c(C#N)c34)c(F)c3nc(OC[C@@]45CCCN4C[C@H](F)C5)nc1c23 (single isomer, unassigned) [Compound 726]
- IC50: ≤ 2000 nM

Compound: CS(=O)(=O)CCC[C@H](c1cccnc1N)N1CCOc2c(C(F)(F)F)c(-c3ccc(F)c4sc(N)c(C#N)c34)c(F)c3nc(OC[C@@]45CCCN4C[C@H](F)C5)nc1c23 (single isomer, unassigned) [Compound 805]
- IC50: ≤ 2000 nM

Compound: N#Cc1c(N)sc2c(F)ccc(-c3c(Cl)c4c5c(nc(OC[C@@]67CCCN6C[C@H](F)C7)nc5c3F)N(C(CC(F)F)c3cccnc3N)CCO4)c12 (mixture of isomers) [Compound 776, 2-amino-4-(4-(1-(2-aminopyridin-3-yl)-3,3-difluoropropyl)-8-chloro-10-fluoro-2-(((2R,7aS)-2-fluorotetrahydro-1H-pyrrolizin-7a(5H)-yl)methoxy)-5,6-dihydro-4H-[1,4]oxazepino[5,6,7-de]quinazolin-9-yl)-7-fluorobenzo[b]thiophene-3-carbonitrile]
- IC50: ≤ 2000 nM

Compound: N#Cc1c(N)sc2c(F)ccc(-c3c(C(F)(F)F)c4c5c(nc(OC[C@@]67CCCN6C[C@H](F)C7)nc5c3F)N([C@H](CCN3CCOCC3)c3cccnc3N)CCO4)c12 (single isomer, unassigned) [Compound 735]
- IC50: ≤ 2000 nM

Compound: C[C@H](c1cccnc1N)N1CCOc2c(Cl)c(-c3ccc(F)c4sc(N)c(C#N)c34)c(F)c3nc(OCC4(CN(C)C)CC4)nc1c23 (single isomer, unassigned) [Compound 771]
- IC50: ≤ 2000 nM

Compound: CP(C)(=O)CC[C@H](c1cccnc1N)N1CCOc2c(C(F)(F)F)c(-c3ccc(F)c4sc(N)c(C#N)c34)c(F)c3nc(OC[C@@]45CCCN4C[C@H](F)C5)nc1c23 (single isomer, unassigned) [Compound 891]
- IC50: ≤ 2000 nM

Compound: N#Cc1c(N)sc2c(F)ccc(-c3c(C(F)(F)F)c4c5c(nc(OC[C@@]67CCCN6C[C@H](F)C7)nc5c3F)N([C@H](CC3CCOCC3)c3cccnc3N)CCO4)c12 (single isomer, unassigned) [Compound 824]
- IC50: ≤ 2000 nM

Compound: C[C@H](c1cccnc1N)N1CCOc2c(Cl)c(-c3cccc4sc(N)c(C#N)c34)c(F)c3nc(OC[C@@]45CCCN4CC(=C(F)F)C5)nc1c23 (single isomer, unassigned) [Compound 688]
- IC50: ≤ 2000 nM

Compound: CCO/N=C1\CN2CCC[C@@]2(COc2nc3c4c(c(Cl)c(-c5ccc(F)c6sc(N)c(C#N)c56)c(F)c4n2)OCCN3[C@H](C)c2cccnc2N)C1 (single isomer, unassigned) [Compound 865]
- IC50: ≤ 2000 nM

Compound: N#Cc1c(N)sc2c(F)ccc(-c3c(C(F)(F)F)c4c5c(nc(OC[C@@]67CCCN6C[C@H](F)C7)nc5c3F)N([C@H](CCC3CCOCC3)c3cccnc3N)CCO4)c12 (single isomer, unassigned) [Compound 696]
- IC50: ≤ 2000 nM

Compound: C[C@H](c1cccnc1N)N1CCOc2c(C(F)(F)F)c(-c3cccc4sc(N)c(C#N)c34)c(F)c3nc(OC[C@@]45CCCN4C[C@H](F)C5)nc1c23 (single isomer, unassigned) [Compound 791]
- IC50: ≤ 2000 nM

Compound: C[C@H](c1cccnc1N)N1CCOc2c(Cl)c(-c3ccc(F)c4sc(N)c(C#N)c34)c(F)c3nc(OCC45CCCN4C[C@H](OCCCP(C)(C)=O)C5)nc1c23 (single isomer, unassigned) [Compound 857]
- IC50: ≤ 2000 nM
